The subject of experiment [1] is CWRR1-Ctl xenograft tumors. Nature of the experiment: CRPC xenograft model, time to 4x tumor volume. The format is in vivo, athymic nude mice. The following applies: 10 mg/kg ENZ, 50 mg/kg MK-1775, daily for 30 days; for median time to endpoint (4x tumor volume relative to volume at randomization): censored at day 31. As to the method: To strengthen the correlation between in vitro and […] studies thereby enhancing translational relevance, an in vivo experiment using a CRPC xenograft model was performed. Following inoculation with CWRR1-Ctl cells, tumor bearing athymic nude mice with a measured tumor volume of ˜150-200 mm^3 were randomized into 4 treatment arms: Vehicle (N=5), 10 mg/kg ENZ (N=8), 50 mg/kg MK-1775 (N=8), and 10 mg/kg ENZ+50 mg/kg MK-1775 (N=8). Mice were treated daily for a period of 30 days. Endpoint for this study was defined as time to 4× tumor volume relative to volume at randomization, representing a lethal tumor burden. Mice who had not reached endpoint at 30 days of treatment were censored at day 31. […] Median time to endpoint for vehicle-, ENZ- and WEE1i-treated mice was 21, 29.5 and 29.5 days, respectively, compared to ENZ+WEE1i-treated mice, which was not reached, as 75% of mice remained without defined progression at 31 days (FIG. 4D).

Experiment [2] concerns CDK1, pCDK1 and pHistone H3 in NCI-H660 cells. The experiment is described as follows: Western blotting in NCI-H660 cells. The following applies: Western blot. The format is cell-based, human. On the technique in general: Immunoblotting shows a protein as a band on a membrane.
For experiment [3], the system named is CDK1, pCDK1, pHistone H3 and cleaved PARP in CWRR1-Ctl cells. Nature of the experiment: Western blotting in CWRR1-Ctl cells. The format is cell-based, human. Conditions: Western blot.
The test system of experiment [4] is CWRR1-Ctl cells. The experiment is described as follows: Proliferation assay, Incucyte S3 live imaging of nuclear GFP, SOX2-positive CWRR1-Ctl cells. The format is cell-based, human. Conditions: 10% CSS supplemented with R-1881, 150 h (~6 days).
The subject of experiment [5] is E2F1, WEE1, CDK1 and p57 in SOX2KO cells. Nature of the experiment: Western blotting in CWRR1-SOX2KO cells. The format is cell-based, human. The following applies: Western blot. As to the method: FIGS. 1A-1D. RNA-seq in Control (Ctl) and -SOX2Ko Cells. Ctl or SOX2^KO cells were cultured in 10% charcoal-stripped media with vehicle (R-1881) or ENZ for 72 hrs, then total RNA was recovered for RNA-seq. […] (FIG. 1B) Top gene set pathways enriched by KEGG using Web Gestalt for unique, differentially expressed genes in SOX2^KO cells following ENZ treatment relative to vehicle. Pathways are ranked by strength of significance (P-value). (FIG. 1C) Normalized counts from RNA-seq of representative cell cycle-related genes (CDK1, E2F1, WEE1, CDKN2A, TGFB1, and CDKN1C) across treatment conditions for Ctl and SOX2^KO cells are graphed. Error bars for normalized count data represent +/−SEM for triplicate samples in each condition. Asterisks represent significant differences with the following adjusted p-values: **1E-03 to 1E-09, ***1.0E-10 to 1.0E-19, ****[…] 1.0E-20. (FIG. 1D) Western blots in Ctl and SOX2^KO cells treated with (3.5 μM R-1881) vehicle or ENZ ([…]) for SOX2 and cell cycle proteins encoded by highlighted genes: WEE1, E2F1, CDK1, and p57, confirm relative expression levels observed by RNA-seq. j-Actin was blotted as a loading control. […]

Experiment [6] has as its system CWRR1-Ctl cells. The experiment is described as follows: Propidium iodide staining, cell cycle status. The format is cell-based, human. The following applies: 10 μM ENZ, 0.8 μM MK-1775, 6 days. As to the method: FIGS. 5A-5C. […] (FIG. 5A) Western blotting in CWRR1-Ctl cells cultured in 10% CSS supplemented with R-1881 and treated with: Vehicle (R; 3.5 μM R-1881), and AR-inhibited conditions ([…] R/10 μM ENZ)+/−0.8 μM MK-1775 (WEE1 inhibition) comparing phosphorylated Histone H3 (indicator of cells in M phase) and cleaved PARP (indicator of apoptosis). 3-Actin was blotted as a loading control. […] (FIG. 5C) β-galactosidase activity in CWRR1-Ctl cells treated with either 10 μM ENZ or 10 μM ENZ in combination with 0.8 μM MK-1775 for 6 days. […] Error bars for propidium iodide staining and β-galactosidase activity data represent +/−SEM of 6 replicates tested in each condition, respectively.
WEE1 plays a central role in negatively regulating mitotic phase entry (i.e. the G2/M checkpoint) through phosphorylation of CDK1 [29]. […] PARP-1 is a known substrate of caspase-mediated apoptotic cell death, and cleaved PARP (c-PARP) is a hallmark of apoptosis.

The next experiment relates to CWRR1-SOX2KO cells. Nature of the experiment: Proliferation assay, Incucyte S3 live imaging of nuclear GFP, CWRR1-SOX2KO cells. The format is cell-based, human. The following applies: 10% CSS supplemented with R-1881, 150 h.
Experiment [7] has as its system NCI-H660 cells. The experiment is described as follows: cells. The following applies: Homo sapiens, NCI-H660, 144 h, read-out: % cell viability relative to 10 nM HC treatment.
Experiment [8] concerns NCI-H660 cells. The following applies: 6 days.

“Also recorded” adds a separate entry of the source.

For `C=CCn1c(=O)c2cnc(Nc3ccc(N4CCN(C)CC4)cc3)nc2n1-c1cccc(C(C)(C)O)n1` [MK-1775], in [1], the “time to endpoint relative to vehicle” value is given as “no significant differences” and the “median time to endpoint (4x tumor volume relative to volume at randomization)” value stood at 29.5 days. For the same compound, the “pHistone H3 relative to DEX and CORT134 treatment alone” value in experiment [2] is listed as “increased”. For the same compound, in experiment [3], the “cleaved PARP (c-PARP)” value is given as “increased” and the “phosphorylated Histone H3 (pHistone H3)” value is given as “increases appreciably”. In addition, in experiment [3] (when WEE1i was present), the pCDK1 protein expression entry is “markedly lower”. In addition, the “proliferative capacity relative to vehicle” value in the experiment on CWRR1-Ctl cells [4] is “no significant difference”.

For `CNC(=O)c1ccc(N2C(=S)N(c3ccc(C#N)c(C(F)(F)F)c3)C(=O)C2(C)C)cc1F` [ENZ, enzalutamide], in experiment [1], the “time to endpoint relative to vehicle” value is “no significant differences” and the “median time to endpoint (4x tumor volume relative to volume at randomization)” value came to 29.5 days. In addition, the “phosphorylated Histone H3 (pHistone H3)” value in experiment [3] is given as “low”. Besides, the “proliferative capacity relative to vehicle” value in the experiment on CWRR1-Ctl cells [4] was “no effect; also recorded: little effect”. For the same compound, the “E2F1, WEE1 and CDK1 expression levels” value in experiment [5] (SOX2KO cells upon AR inhibition) was “notably lower”. Also, the p57 expression result in [5] (SOX2KO cells with AR antagonism) is given as “highest expression”. The “% cells at G2/M cell cycle phase” value in the experiment with CWRR1-Ctl cells [6] was 11.95%. The “proliferative capacity compared to vehicle” value in the experiment on CWRR1-SOX2KO cells is reported as “significantly lower”.

As for `C[C@@H]1C[C@H]2[C@@H]3CCC4=CC(=O)C=C[C@]4(C)[C@@]3(F)[C@@H](O)C[C@]2(C)[C@@]1(O)C(=O)CO` [DEX, dexamethasone], the viability (usually a read-out of living cells in per cent, often relative to untreated cells) at 0.1 µM with NCI-H660 cells [7] turned out to be 105%.

As to `Cn1cc(S(=O)(=O)N2CCC3=Cc4c(cnn4-c4ccc(F)cc4)C[C@]3(C(=O)c3cc(C(F)(F)F)ccn3)C2)cn1` [CORT134, relacorilant], in the experiment with NCI-H660 cells [8], the “cell viability relative to control” value is recorded as “minimal differences”. Also, the viability at 1 µM with NCI-H660 cells [7] is 91.8%.

Values taken from patent publication US20250345334A1, “METHODS OF TREATING PROSTATE CANCER” (The University of Chicago, priority 2024, published 2025).
